Data from patent US20190367516A1 (Bayer Pharma Aktiengesellschaft, priority 2015, published 2019).

Experiments:
[1] = biological target: T1, human M2 receptor (Homo sapiens, UniProt P08172); details: for EC50: Receptor activity EC50, M2-GIRK1/4 activation test, acetylcholine at EC20, allosteric potency, in some cases mean values from two or more determinations; for Emax: read-out: Efficiency
T1 sequence (P08172 1-466): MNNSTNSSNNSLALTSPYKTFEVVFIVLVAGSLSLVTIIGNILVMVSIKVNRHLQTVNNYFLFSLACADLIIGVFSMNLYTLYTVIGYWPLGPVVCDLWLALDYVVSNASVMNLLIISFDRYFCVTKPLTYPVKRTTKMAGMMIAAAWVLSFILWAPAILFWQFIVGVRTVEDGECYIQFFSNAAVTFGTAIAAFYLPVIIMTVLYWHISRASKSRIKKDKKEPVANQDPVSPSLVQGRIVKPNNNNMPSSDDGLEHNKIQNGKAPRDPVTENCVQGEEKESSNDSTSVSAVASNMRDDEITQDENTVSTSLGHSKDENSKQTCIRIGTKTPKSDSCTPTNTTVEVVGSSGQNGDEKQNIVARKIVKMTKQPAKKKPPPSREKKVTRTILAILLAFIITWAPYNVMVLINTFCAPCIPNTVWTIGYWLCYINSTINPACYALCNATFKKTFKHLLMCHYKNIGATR

[2] = test system: anaesthetized rats; experiment: Effects on the heart rate in anaesthetized rats (B-9); assay type: in vivo, rat; details: i.v. infusion via jugular vein over 5 min, dose not given, in some cases means of several determinations
Protocol: B-9. Effects of the Test Substances on the Heart Rate in Anaesthetized Rats
Male rats of the strain (WI) WU Br from the breeder Charles River are anaesthetized initially with a 4-5% isoflurane inhalation for approx. 3 min. Subsequently, anaesthesia is maintained using a 1.5% isoflurane inhalation. For this purpose, the anaesthetized animals are fixed on a heated operating plate. By means of visual inspection and between toe reflex, the depth of anaesthesia is checked.
For the application of the test substance, an i.v. route into the jugular vein is used. A caudal to cranial skin incision is then made longitudinally and both the cervical musculature and the salivary glands are severed. The right common carotid artery is exposed and blood supply is arrested both proximally and distally. Using microinstrumentation, a TIP catheter (1.2 F) is introduced into the vessel in order to measure the arterial pressure and the heart rate.
Initially, both parameters are monitored for 10 min in the basal state without substance addition. The substances to be investigated are dissolved in suitable solvent mixtures and subsequently administered at various dosages to a group of animals in each case via the jugular vein by an infusion pump over 5 min. A solvent-treated group is used as control under the same experimental conditions. The arterial blood pressure and heart rate with substance addition is determined for 20 min. The data are registered with the PowerLab system (AD instruments) and evaluated using the LabChart program (AD instruments).
The values determined in this manner for the percentage decrease in heart rate for individual working examples are given in Table 4 below (in some cases as means of a plurality of independent individual determinations): […]

[3] = biological target: T1, human M2 receptor; assay type: cell-based; details: shift in the acetylcholine dose-response curve (Allosteric EC50 shift, GraphPad PRISM); α >1 = positive cooperativity

Compound	EC50 [1] [µM]	Reduction in heart rate (%) [2] [%]	Cooperativity (alpha factor) [3]	Emax [1] [%]
O=C(N[C@H](C1CC1)C(F)(F)F)c1cn(-c2ccc(F)cc2F)c2nc(N3C[C@@H](O)CC3=O)ccc2c1=O [Example 271, N-[(1R)-1-Cyclopropyl-2,2,2-trifluoroethyl]-1-(2,4-difluorophenyl)-7-[(4S)-4-hydroxy-2-oxopyrrolidin-1-yl]-4-oxo-1,4-dihydro-1,8-naphthyridine-3-carboxamide]	0.04	8	43	–
CC[C@@H](NC(=O)c1cn(-c2c(F)cccc2F)c2nc(N3C[C@@H](O)CC3=O)ccc2c1=O)C(F)(F)F [Example 275, 1-(2,6-Difluorophenyl)-7-[(4S)-4-hydroxy-2-oxopyrrolidin-1-yl]-4-oxo-N-[(2R)-1,1,1-trifluorobutan-2-yl]-1,4-dihydro-1,8-naphthyridine-3-carboxamide]	0.018	9	38	92.8
CC[C@@H](NC(=O)c1cn(-c2c(F)cc(F)cc2F)c2nc(N3C[C@@H](O)CC3=O)ccc2c1=O)C(F)(F)F [Example 325, 7-[(4S)-4-Hydroxy-2-oxopyrrolidin-1-yl]-4-oxo-N-[(2R)-1,1,1-trifluorobutan-2-yl]-1-(2,4,6-trifluorophenyl)-1,4-dihydro-1,8-naphthyridine-3-carboxamide]	0.007	13	56	93
C[C@H](NC(=O)c1cn(-c2c(F)cc(F)cc2F)c2nc(N3C[C@@H](O)CC3=O)ccc2c1=O)C(F)(F)F [Example 330, 7-[(4S)-4-Hydroxy-2-oxopyrrolidin-1-yl]-4-oxo-1-(2,4,6-trifluorophenyl)-N-[(2S)-1,1,1-trifluoropropan-2-yl]-1,4-dihydro-1,8-naphthyridine-3-carboxamide]	0.041	9	29	–
CC[C@H](NC(=O)c1cn(-c2c(F)cc(F)cc2F)c2nc(N3C[C@@H](O)CC3=O)ccc2c1=O)C(F)(F)F [Example 332, 7-[(4S)-4-Hydroxy-2-oxopyrrolidin-1-yl]-4-oxo-N-[(2S)-1,1,1-trifluorobutan-2-yl]-1-(2,4,6-trifluorophenyl)-1,4-dihydro-1,8-naphthyridine-3-carboxamide]	0.02	11	37	99.2
O=C(N[C@H](C1CC1)C(F)(F)F)c1cn(-c2c(F)cc(F)cc2F)c2nc(N3CCNC3=O)ccc2c1=O [Example 342, N-[(1R)-1-Cyclopropyl-2,2,2-trifluoroethyl]-4-oxo-7-(2-oxoimidazolidin-1-yl)-1-(2,4,6-trifluorophenyl)-1,4-dihydro-1,8-naphthyridine-3-carboxamide]	0.011	10	13	–
CC(C)(C)[C@@H](NC(=O)c1cn(-c2c(F)cc(F)cc2F)c2nc(N3C[C@@H](O)[C@H](O)C3)ccc2c1=O)C(F)(F)F [Example 349, 7-[(3R,4R)-3,4-Dihydroxypyrrolidin-1-yl]-4-oxo-N-[(2R)-1,1,1-trifluoro-3,3-dimethylbutan-2-yl]-1-(2,4,6-trifluorophenyl)-1,4-dihydro-1,8-naphthyridine-3-carboxamide]	0.004	14	52	100
